{"source": "patent US5441962A", "about": "“Method for treating hyperlipemia” (priority 1992, dated 1995)", "key": {"[1]": {"tested_on": "mice", "test": "in vivo", "conditions": "oral"}, "[2]": {"test": "in vivo", "conditions": "mouse, in vivo, po, average"}, "[3]": {"test": "Serum lipid and blood glucose level in experimental sclerosis rabbits", "format": "in vivo, Male Japanese white rabbits", "conditions": "rabbit, oral 3 mg once per day, after five months", "text": "(§1) In this example, the effects of the present compound on the wall of a blood vessel, a serum lipid and a blood glucose level were studied on the experimental sclerosis rabbits from the determination of the arterial sclerosis action, the assay of the components constituting the wall of the blood vessel and the transitional analysis of the damage of the blood wall with time.\n(§2) Male Japanese white rabbits (25 months age) were randomly divided into three groups. A normal diet was given to one group (called hereafter \"healthy group\"). The remaining two groups were fed with 100 g/day of a high α-starch, high salinity and low protein, sclerosis diet containing 0.3% cholesterol (manufactured by Funabashi Farm), simultaneously injected intramuscularly with norepinephrine (3 mg) and bred for 150 days. One group of them was called hereafter \"sclerosis group\". […] Every 50 days, Aortic Pulse Wave Velocity (PWV) was measured to determine a average hardness of aorta of the rabbits. After five months and just before slaughter of the rabbits, blood was drawn to determine cholesterol in blood (T-Cho), triglyceride (TG), β-lipoprotein (β-Lp), HDL choresterol and a blood glucose level. After slaughter, a fifth intercostal pars in the thoracic aorta was extracted and then subjected to formalin fixation and embedding in paraffin. Subsequently, each component of smooth muscle cell (SMC), elastin (EL), collagen (CL), glycosaminoglycan (GAGs), PAS positive substance (PAS), calcium (Ca) and cholesterol (Cho) was histochemically observed and assayed."}, "[4]": {"tested_on": "Wall of Aorta", "test": "Proportion of components constituting the wall of aorta (histochemical assay, fifth intercostal pars of thoracic aorta)", "format": "in vivo, Male Japanese white rabbits", "text": "as §1, §2"}, "[5]": {"tested_on": "experimental sclerosis rabbits", "test": "Change of Aortic Pulse Wave Velocity (ΔPWV) in experimental sclerosis rabbits", "format": "in vivo, Male Japanese white rabbits", "text": "as §1, §2\nPWV is increasing with the advance of growth, maturation and ageing. Thus an increase in PWV value is an indication of arterial sclerosis (see Arterial Sclerosis, vol. 8, No. 1 April 1980, pp 91-95)."}, "[6]": {"conditions": "rabbit, oral 3 mg once per day, after 150 days"}}, "note": "Where a name gives a salt, the structure may show the parent alone.", "data": [{"compound": "CC(C)(C)NCC(O)COc1c[nH]c(=O)c2ccccc12", "note": "(centres unmarked) [4-(3-tert.-butylamino-2-hydroxypropoxy)-1-isoquinolinonehydrochloride]", "values": [{"measurement": "LD50, range in parentheses", "setting": "[1]; female mice", "value": "1063 to 1566", "unit": "mg/kg"}, {"measurement": "LD50, range in parentheses", "setting": "[1]; male mice", "value": "1223 to 1587", "unit": "mg/kg"}, {"measurement": "LD50", "setting": "[2]; female mice", "value": 1290, "unit": "mg/kg"}, {"measurement": "LD50", "setting": "[2]; male mice", "value": 1390, "unit": "mg/kg"}]}, {"compound": "Cl.Cn1cc(OCC(O)CNC(C)(C)C)c2ccccc2c1=O", "note": "(racemic) [(±)-4-(3-tert.-butylamino-2-hydroxypropoxy)-2-methyl-1 (2H)-isoquinolinone hydrochloride]", "values": [{"measurement": "Blood glucose level", "setting": "[3]", "value": 162.50, "unit": "mg/dL"}, {"measurement": "Cholesterol in blood (T-Cho)", "setting": "[3]", "value": 25.25, "unit": "mg/dL"}, {"measurement": "HDL cholesterol (HDL-C)", "setting": "[3]", "value": 15.44, "unit": "mg/dL"}, {"measurement": "Triglyceride (TG)", "setting": "[3]", "value": 65.40, "unit": "mg/dL"}, {"measurement": "β-lipoprotein (β-Lp)", "setting": "[3]", "value": 2.75, "unit": "mg/dL"}, {"measurement": "Improvement in arterial sclerosis", "setting": "[4]; Table 2, drug administered group", "value": "remarkable improvement in arterial sclerosis"}, {"measurement": "Proportion of PAS positive substance (PAS) in the wall of aorta", "setting": "[4]; [6]", "value": 27.83, "unit": "% E"}, {"measurement": "Proportion of calcium (Ca) in the wall of aorta", "setting": "[4]; [6]", "value": 1.92, "unit": "% E"}, {"measurement": "Proportion of cholesterol (Cho) in the wall of aorta", "setting": "[4]; [6]", "value": 0.68, "unit": "% E"}, {"measurement": "Proportion of collagen (CL) in the wall of aorta", "setting": "[4]; [6]", "value": 30.33, "unit": "% E"}, {"measurement": "Proportion of elastin (EL) in the wall of aorta", "setting": "[4]; [6]", "value": 40.56, "unit": "% E"}, {"measurement": "Proportion of glycosaminoglycan (GAGs) in the wall of aorta", "setting": "[4]; [6]", "value": 16.03, "unit": "% E"}, {"measurement": "Proportion of smooth muscle cell (SMC) in the wall of aorta", "setting": "[4]; [6]", "value": 46.72, "unit": "% E"}, {"measurement": "PWV as compared with the sclerosis group", "setting": "[5]; 150 days, vs sclerosis group", "value": "significantly improved"}, {"measurement": "Δ PWV, 0-50 days", "setting": "[5]; rabbit, sclerosis diet + norepinephrine i.m., oral capsule 3 mg once per day, 0-50 days", "value": -0.110, "unit": "m/sec"}, {"measurement": "Δ PWV, 51-100 days", "setting": "[5]; rabbit, sclerosis diet + norepinephrine i.m., oral capsule 3 mg once per day, 51-100 days", "value": -0.290, "unit": "m/sec"}, {"measurement": "Δ PWV, 101-150 days", "setting": "[5]; rabbit, sclerosis diet + norepinephrine i.m., oral capsule 3 mg once per day, 101-150 days", "value": -0.890, "unit": "m/sec"}, {"measurement": "LD50", "setting": "[2]; female mice", "value": 1290, "unit": "mg/kg"}, {"measurement": "LD50", "setting": "[2]; male mice", "value": 1390, "unit": "mg/kg"}]}]}
